# Measurements from ChEMBL document CHEMBL5550102, “Caged xanthone derivatives to promote mitochondria-mediated apoptosis in breast cancer cells” (Bioorg Med Chem, 2024).
# pIC50: −log10 of the molar value.
# How the values were obtained:
# [1] = test system: A549; assay: Cytotoxicity against human A549 cells incubated for 72 hrs by CCK8 assay; assay type: functional, cell-based; settings: A549, 72 h
# [2] = test system: HepG2; assay: Cytotoxicity against human HepG2 cells incubated for 72 hrs by CCK8 assay; assay type: functional, cell-based; settings: HepG2, 72 h
# [3] = test system: MDA-MB-231; assay: Cytotoxicity against human MDA-MB-231 cells incubated for 72 hrs by CCK8 assay; assay type: functional, cell-based; settings: MDA-MB-231, 72 h
# [4] = test system: MDA-MB-231; assay: Induction of apoptosis in human MDA-MB-231 cells assessed as increase in cleaved caspase-9 level incubated for 24 to 48 hrs by Western blot analysis; assay type: functional, cell-based; settings: dose <= 20.0 µM, time 24-48 hrs
# [5] = test system: MDA-MB-231; assay: Induction of apoptosis in human MDA-MB-231 cells assessed as viable cells at 20 uM incubated for 24 hrs by Annexin V-FITC/PI staining based flow cytometry (reference value: 88.2 %); assay type: functional; settings: read-out: Activity
# [6] = test system: MDA-MB-231; assay: Induction of mitochondrial dysfunction in human MDA-MB-231 cells assessed as cell with low mitochondrial membrane potential at 15 uM incubated for 48 hrs by JC-1 staining based flow cytometry (reference value: 2.50 %); assay type: functional
# [7] = test system: MDA-MB-231; assay: Induction of apoptosis in human MDA-MB-231 cells assessed as viable cells at 15 uM incubated for 24 hrs by Annexin V-FITC/PI staining based flow cytometry (reference value: 88.2 %); assay type: functional; settings: read-out: Activity
# [8] = test system: MDA-MB-231; assay: Induction of mitochondrial dysfunction in human MDA-MB-231 cells assessed as cell with low mitochondrial membrane potential at 17.5 uM incubated for 24 hrs by JC-1 staining based flow cytometry (reference value: 3.68 %); assay type: functional
# [9] = test system: MDA-MB-231; assay: Induction of apoptosis in human MDA-MB-231 cells assessed as late apoptotic cells at 17.5 uM incubated for 24 hrs by Annexin V-FITC/PI staining based flow cytometry (reference value: 3.36 %); assay type: functional
# [10] = test system: MDA-MB-231; assay: Induction of mitochondrial dysfunction in human MDA-MB-231 cells assessed as cell with low mitochondrial membrane potential at 17.5 uM incubated for 48 hrs by JC-1 staining based flow cytometry (reference value: 2.50 %); assay type: functional
# [11] = test system: MDA-MB-231; assay: Induction of cell cycle arrest at G2/M phase in human MDA-MB-231 cells incubated for 12 to 24 hrs by PI/RNase staining based flow cytometry; assay type: functional; settings: dose <= 20.0 µM, time 12-24 hrs
# [12] = test system: MDA-MB-231; assay: Induction of apoptosis in human MDA-MB-231 cells assessed as early apoptotic cells at 15 uM incubated for 48 hrs by Annexin V-FITC/PI staining based flow cytometry (reference value: 5.72 %); assay type: functional
# [13] = test system: MDA-MB-231; assay: Induction of apoptosis in human MDA-MB-231 cells assessed as late apoptotic cells at 17.5 uM incubated for 48 hrs by Annexin V-FITC/PI staining based flow cytometry (reference value: 2.79 %); assay type: functional
# [14] = test system: MDA-MB-231; assay: Induction of apoptosis in human MDA-MB-231 cells assessed as early apoptotic cells at 15 uM incubated for 24 hrs by Annexin V-FITC/PI staining based flow cytometry (reference value: 7.39 %); assay type: functional
# [15] = test system: MDA-MB-231; assay: Induction of mitochondrial dysfunction in human MDA-MB-231 cells assessed as cell with low mitochondrial membrane potential at 20 uM incubated for 48 hrs by JC-1 staining based flow cytometry (reference value: 2.50 %); assay type: functional
# [16] = test system: MDA-MB-231; assay: Induction of apoptosis in human MDA-MB-231 cells assessed as viable cells at 15 uM incubated for 48 hrs by Annexin V-FITC/PI staining based flow cytometry (reference value: 91.2 %); assay type: functional; settings: read-out: Activity
# [17] = test system: MDA-MB-231; assay: Induction of apoptosis in human MDA-MB-231 cells assessed as necrotic cells at 20 uM incubated for 48 hrs by Annexin V-FITC/PI staining based flow cytometry (reference value: 0.33 %); assay type: functional
# [18] = test system: MDA-MB-231; assay: Induction of apoptosis in human MDA-MB-231 cells assessed as necrotic cells at 17.5 uM incubated for 48 hrs by Annexin V-FITC/PI staining based flow cytometry (reference value: 0.33 %); assay type: functional
# [19] = test system: MDA-MB-231; assay: Induction of cell cycle arrest at G2/M phase in human MDA-MB-231 cells at 20 uM incubated for 12 to 24 hrs by PI/RNase staining based flow cytometry relative to control; assay type: functional; settings: time 12-24 hrs
# [20] = test system: MDA-MB-231; assay: Induction of apoptosis in human MDA-MB-231 cells assessed as early apoptotic cells at 20 uM incubated for 24 hrs by Annexin V-FITC/PI staining based flow cytometry (reference value: 7.39 %); assay type: functional
# [21] = test system: MDA-MB-231; assay: Induction of apoptosis in human MDA-MB-231 cells assessed as necrotic cells at 15 uM incubated for 48 hrs by Annexin V-FITC/PI staining based flow cytometry (reference value: 0.33 %); assay type: functional
# [22] = test system: MDA-MB-231; assay: Induction of apoptosis in human MDA-MB-231 cells assessed as necrotic cells at 15 uM incubated for 24 hrs by Annexin V-FITC/PI staining based flow cytometry (reference value: 1.06 %); assay type: functional
# [23] = test system: MDA-MB-231; assay: Induction of mitochondrial dysfunction in human MDA-MB-231 cells assessed as cell with low mitochondrial membrane potential at 20 uM incubated for 24 hrs by JC-1 staining based flow cytometry (reference value: 3.68 %); assay type: functional
# [24] = test system: MDA-MB-231; assay: Induction of apoptosis in human MDA-MB-231 cells assessed as increase in cleaved caspase-9 level upto 20 uM by Western blot analysis; assay type: functional, cell-based; settings: time 24-48 hrs, TDE = time-dependent effect
# [25] = test system: MDA-MB-231; assay: Induction of apoptosis in human MDA-MB-231 cells assessed as viable cells at 17.5 uM incubated for 24 hrs by Annexin V-FITC/PI staining based flow cytometry (reference value: 88.2 %); assay type: functional; settings: read-out: Activity
# [26] = test system: MDA-MB-231; assay: Induction of mitochondrial dysfunction in human MDA-MB-231 cells assessed as cell with low mitochondrial membrane potential at 15 uM incubated for 24 hrs by JC-1 staining based flow cytometry (reference value: 3.68 %); assay type: functional
# [27] = test system: MDA-MB-231; assay: Induction of apoptosis in human MDA-MB-231 cells assessed as late apoptotic cells at 20 uM incubated for 24 hrs by Annexin V-FITC/PI staining based flow cytometry (reference value: 3.36 %); assay type: functional
# [28] = test system: MDA-MB-231; assay: Induction of apoptosis in human MDA-MB-231 cells assessed as late apoptotic cells at 15 uM incubated for 48 hrs by Annexin V-FITC/PI staining based flow cytometry (reference value: 2.79 %); assay type: functional
# [29] = test system: MDA-MB-231; assay: Induction of apoptosis in human MDA-MB-231 cells assessed as late apoptotic cells at 15 uM incubated for 24 hrs by Annexin V-FITC/PI staining based flow cytometry (reference value: 3.36 %); assay type: functional
# [30] = test system: MDA-MB-231; assay: Induction of apoptosis in human MDA-MB-231 cells assessed as necrotic cells at 20 uM incubated for 24 hrs by Annexin V-FITC/PI staining based flow cytometry (reference value: 1.06 %); assay type: functional
# [31] = test system: MDA-MB-231; assay: Induction of apoptosis in human MDA-MB-231 cells assessed as early apoptotic cells at 17.5 uM incubated for 48 hrs by Annexin V-FITC/PI staining based flow cytometry (reference value: 5.72 %); assay type: functional
# [32] = test system: MDA-MB-231; assay: Induction of apoptosis in human MDA-MB-231 cells assessed as viable cells at 20 uM incubated for 48 hrs by Annexin V-FITC/PI staining based flow cytometry (reference value: 91.2 %); assay type: functional; settings: read-out: Activity
# [33] = test system: MDA-MB-231; assay: Induction of apoptosis in human MDA-MB-231 cells assessed as late apoptotic cells at 20 uM incubated for 48 hrs by Annexin V-FITC/PI staining based flow cytometry (reference value: 2.79 %); assay type: functional
# [34] = test system: MDA-MB-231; assay: Induction of apoptosis in human MDA-MB-231 cells assessed as early apoptotic cells at 17.5 uM incubated for 24 hrs by Annexin V-FITC/PI staining based flow cytometry (reference value: 7.39 %); assay type: functional
# [35] = test system: MDA-MB-231; assay: Induction of apoptosis in human MDA-MB-231 cells assessed as viable cells at 17.5 uM incubated for 48 hrs by Annexin V-FITC/PI staining based flow cytometry (reference value: 91.2 %); assay type: functional; settings: read-out: Activity
# [36] = test system: MDA-MB-231; assay: Induction of apoptosis in human MDA-MB-231 cells assessed as necrotic cells at 17.5 uM incubated for 24 hrs by Annexin V-FITC/PI staining based flow cytometry (reference value: 1.06 %); assay type: functional
# [37] = test system: MDA-MB-231; assay: Induction of apoptosis in human MDA-MB-231 cells assessed as early apoptotic cells at 20 uM incubated for 48 hrs by Annexin V-FITC/PI staining based flow cytometry (reference value: 5.72 %); assay type: functional
compound,measurement,setting,value
COC(=O)C[C@]12C=C3C(=O)c4cccc(C)c4O[C@@]3(CC1)[C@H]1C(=O)N(c3ccc(Br)cc3)C(=O)[C@H]12,pIC50,[1],4.54
same,pIC50,[2],4.65
same,pIC50,[3],4.63
COC(=O)C[C@]12C=C3C(=O)c4cccc(C)c4O[C@@]3(CC1)[C@H]1C(=O)N(c3ccc(C(F)(F)F)cc3)C(=O)[C@H]12,pIC50,[1],4.40
same,pIC50,[2],4.48
same,pIC50,[3],4.57
COC(=O)C[C@]12C=C3C(=O)c4ccccc4O[C@@]3(CC1)[C@H]1C(=O)N(c3ccccc3)C(=O)[C@H]12,pIC50,[1],4.38
same,pIC50,[2],4.63
same,pIC50,[3],4.52
COC(=O)C[C@]12C=C3C(=O)c4ccccc4O[C@@]3(CC1)[C@H]1C(=O)N(c3ccc(OC)cc3)C(=O)[C@H]12,pIC50,[1],< 4.30
same,pIC50,[2],< 4.30
same,pIC50,[3],< 4.30
COC(=O)C[C@]12C=C3C(=O)c4ccccc4O[C@@]3(CC1)[C@H]1C(=O)N(C)C(=O)[C@H]12,pIC50,[1],4.43
same,pIC50,[2],4.78
same,pIC50,[3],4.43
COC(=O)C[C@]12C=C3C(=O)c4ccccc4O[C@@]3(CC1)[C@H]1C(=O)N(Cc3ccccc3)C(=O)[C@H]12,pIC50,[1],< 4.30
same,pIC50,[2],< 4.30
same,pIC50,[3],< 4.30
CC(=O)O[C@H]1C(=O)[C@@]2(C)[C@H]([C@H](OC(=O)c3ccccc3)[C@]3(O)C[C@H](OC(=O)[C@H](O)[C@@H](NC(=O)c4ccccc4)c4ccccc4)C(C)=C1C3(C)C)[C@]1(OC(C)=O)CO[C@@H]1C[C@@H]2O [PACLITAXEL],pIC50,[1],6.40
same,pIC50,[2],7.22
same,pIC50,[3],6.96
COC(=O)C[C@]12C=C3C(=O)c4ccccc4O[C@@]3(CC1)[C@H]1C(=O)N(c3ccc(Br)cc3)C(=O)[C@H]12,pIC50,[1],4.61
same,pIC50,[2],4.59
same,pIC50,[3],4.61
COC(=O)C[C@]12C=C3C(=O)c4cc(F)ccc4O[C@@]3(CC1)[C@H]1C(=O)N(c3ccc(Br)cc3)C(=O)[C@H]12,pIC50,[1],< 4.30
same,pIC50,[2],< 4.30
same,pIC50,[3],< 4.30
COC(=O)C[C@]12C=C3C(=O)c4ccccc4O[C@@]3(CC1)[C@H]1C(=O)N(c3ccc(C(F)(F)F)cc3)C(=O)[C@H]12,Activity,[4],Dose-Dependent Effect
same,viability at 20 µM,[5],62.1%
same,Activity,[6],70.23%
same,viability at 15 µM,[7],84.2%
same,Activity,[8],53%
same,Activity,[9],10.3%
same,Activity,[10],92.63%
same,Activity,[11],Dose-Dependent Effect
same,Activity,[12],24.4%
same,pIC50,[1],4.72
same,Activity,[13],14.5%
same,Activity,[14],9.01%
same,Activity,[15],96.87%
same,viability at 15 µM,[16],67.4%
same,Activity,[17],1.87%
same,Activity,[18],1.38%
same,Activity,[19],>15%
same,pIC50,[2],4.80
same,Activity,[20],18.8%
same,Activity,[21],0.7%
same,Activity,[22],0.98%
same,Activity,[23],59.57%
same,Activity,[24],Tde
same,viability at 17.5 µM,[25],72.8%
same,Activity,[26],29.07%
same,Activity,[27],16.8%
same,Activity,[28],7.51%
same,Activity,[29],5.84%
same,Activity,[30],2.33%
same,Activity,[31],43.4%
same,pIC50,[3],4.89
same,viability at 20 µM,[32],26%
same,Activity,[33],15.2%
same,Activity,[34],15.3%
same,viability at 17.5 µM,[35],40.7%
same,Activity,[36],1.7%
same,Activity,[37],56.9%
COC(=O)C[C@]12C=C3C(=O)c4cc(F)ccc4O[C@@]3(CC1)[C@H]1C(=O)N(c3ccc(C(F)(F)F)cc3)C(=O)[C@H]12,pIC50,[1],< 4.30
same,pIC50,[2],< 4.30
same,pIC50,[3],< 4.30
COC(=O)C[C@]12C=C3C(=O)c4ccccc4O[C@@]3(CC1)[C@H]1C(=O)N(C(C)(C)C)C(=O)[C@H]12,pIC50,[1],< 4.30
same,pIC50,[2],< 4.30
same,pIC50,[3],< 4.30
COC(=O)C[C@]12C=C3C(=O)c4ccccc4O[C@@]3(CC1)[C@H]1C(=O)NC(=O)[C@H]12,pIC50,[1],< 4.30
same,pIC50,[2],< 4.30
same,pIC50,[3],< 4.30
COC(=O)C[C@]12C=C3C(=O)c4ccccc4O[C@@]3(CC1)[C@H]1C(=O)N(C3CCCCC3)C(=O)[C@H]12,pIC50,[1],< 4.30
same,pIC50,[2],< 4.30
same,pIC50,[3],< 4.30
